Patent publication US7678808B2, “5 HT receptor mediated neurogenesis” (BrainCells, Inc., priority 2006, dated 2010)
“Also recorded” adds a separate entry of the source. Where a name gives a salt, the structure may show the parent alone.

Key:
[1] = molecular target: mGluR3 (Homo sapiens, UniProt Q14832); conditions: read-out: IC50 against mGluR3; cited from earlier work
[2] = molecular target: mGluR2 (Homo sapiens, UniProt Q14416); conditions: read-out: IC50 against mGluR2; cited from earlier work
[3] = test system: Group I or Group III receptors; conditions: sub-mM concentrations; cited from earlier work
[4] = test system: human neural stem cells (hNSCs); assay: Astrocyte differentiation of hNSCs (GFAP staining); format: cell-based; conditions: for effect on astrocyte differentiation (in words): GFAP; for EC50: Homo sapiens, Neural stem cell
Protocol: Experiments were carried out as described in Example 1, except the positive control for astrocyte differentiation contained mitogen-free test media with a positive control, and cells were stained with GFAP antibody.
Experiments were carried out as described in Example 2, except the positive control for astrocyte differentiation contained mitogen-free test media with a different positive control.
(§1) Human neural stem cells (hNSCs) were isolated and grown in monolayer culture, plated, treated with varying concentrations of buspirone in the presence or absence of the melatonin agonist melatonin, and stained with TUJ-1 antibody for the detection of neuronal differentiation or GFAP antibody for the detection of astrocyte differentiation, as described above. Mitogen-free test media with a positive control for neuronal differentiation was used along with basal media without growth factors as a negative control.

[5] = test system: human neural stem cells (hNSCs); assay: Neuronal differentiation of human neural stem cells (TUJ-1 staining); format: cell-based; conditions: for EC50: agent alone, data as % of neuronal positive control, basal media subtracted; for EC50 / effect on neuronal differentiation (in words): hNSC; for effect on neuronal differentiation (in words): TUJ-1
Source text: Mitogen-free test media with a positive control was used for neuronal differentiation, and basal media without growth factors served as a negative control.
Mitogen-free test media with a positive control for neuronal differentiation was used, and basal media without growth factors served as a negative control.
as §1
(§2) Human neural stem cells (hNSCs) were isolated and grown in monolayer culture, plated, treated with varying concentrations of a 5-HT3 antagonist and stained with TUJ-1 antibody, as described above. Mitogen-free test media with a positive control for neuronal differentiation was used along with basal media without growth factors as a negative control.
as §2, with “5-HT4 agonist” for “5-HT3 antagonist”
The presence of synergy was determined by use of a combination index (CI). […] The CI is a quantitative measure of the nature of drug interactions, comparing the EC50's of two compounds, when each is assayed alone, to the EC50 of each compound when assayed in combination. The combination index (CI) is equal to the following formula: […]
where C1 and C2 are the concentrations of a first and a second compound, respectively, resulting in 50% activity in neuronal differentiation when assayed in combination; and IC1 and IC2 are the concentrations of each compound resulting in 50% activity when assayed independently.

[6] = test system: KA, AMPA, and NMDA iGlu receptors; conditions: cited from earlier work
[7] = molecular target: human mGlu3 (Homo sapiens, UniProt Q14832); conditions: in vitro; low nanomolar range; read-out: EC50 against human mGlu3 receptors; cited from earlier work
[8] = molecular target: human mGlu2 (Homo sapiens, UniProt Q14416); conditions: in vitro; low nanomolar range; read-out: EC50 against human mGlu2 receptors; cited from earlier work
[9] = test system: human neural stem cells (hNSC); assay: Immunohistochemistry with neuronal and astrocyte markers (TUJ-1, GFAP, Hoechst 33342); format: cell-based; conditions: incubated with 30 μM
Protocol: Immunohistochemistry was carried out as described above using TUJ-1 as a neuronal cell marker and GFAP as an astrocyte marker. The results are shown in FIG. […] Immunohistochemistry was carried out as described in Example 3.

[10] = test system: Male F344 rats; assay: Novelty suppressed feeding (NSF) depression assay; format: in vivo, rat; conditions: 1x per day for 21 days
Protocol: Twenty-four hours prior to behavioral testing, all food is removed from the home cage. At the time of testing a single pellet is placed in the center of a novel arena. Animals are placed in the corner of the arena and latency to eat the pellet is recorded. […] Animals receive compound daily for 21 days and testing is performed on day 21. A decreased latency to eat the food pellet is indicative of both neurogenesis and antidepressant activity.
Twenty-four hours prior to behavioral testing, all food is removed from the home cage. At the time of testing a single pellet is placed in the center of a novel arena. Animals are placed in the corner of the arena and the latency (in time) to eat the pellet is recorded. […] Animals receive compound daily for 21 days and testing is performed on day 21. A decreased latency to eat the food pellet is indicative of both neurogenesis and antidepressant activity.

[11] = test system: Male F344 rats; assay: Novel Object Recognition (NOR) cognition assay; format: in vivo, rat; conditions: fluoxetine 5 and 10 mg/kg p.o., 1x per day for 28 days
Source text: The apparatus consisted of an open field (45×45×50 cm high) made of polycarbonate. Triplicate copies were used of the objects to be discriminated. Care was taken to ensure that the pair of objects tested were made from the same material so that they could not be distinguished readily by olfactory cues although they had very different appearances.
Each test session consisted of two phases. In the initial familiarization phase, two identical objects (A1 and A2) were placed in the far corners of the box arena. A rat was then placed in the middle of the arena and allowed 15 minutes to explore both objects. Exploration of an object was defined as directing the nose to the object at a distance of less than 2 cm and/or touching it with the nose. After a delay of 48-hours the rat was re-introduced to the arena (“test phase”). The box now contained a third identical copy of the familiar object (A3) and a new object (B). These were placed in the same locations as the sample stimuli, whereby the position (left or right) of the novel object in the test phase was balanced between rats. For half the rats, object A was the sample and object B was the novel alternative. The test phase was 15 minutes in duration, with the first 30 seconds of object interaction used to determine preference scores. Any animal with less than 15 seconds of object exploration were excluded from analysis.

[12] = test system: granule cell layer of the dentate gyrus; assay: In vivo neurogenesis (BrdU positive cell counts); design: species or system rat; conditions: 0.5 mg/kg buspirone, 3.0 mg/kg melatonin or both, i.p., 1x per day for 28 days
Protocol: BrdU was administered once daily between days 9 and 14 (100 mg/kg/day, i.p., n=12 per dose group). […] Data are presented as percent change in BrdU positive cells per cubic mm dentate gyrus.

[13] = agent alone, hNSC, % of astrocyte positive control, basal media subtracted

Chain of mGluR2 (Q14416 19-872): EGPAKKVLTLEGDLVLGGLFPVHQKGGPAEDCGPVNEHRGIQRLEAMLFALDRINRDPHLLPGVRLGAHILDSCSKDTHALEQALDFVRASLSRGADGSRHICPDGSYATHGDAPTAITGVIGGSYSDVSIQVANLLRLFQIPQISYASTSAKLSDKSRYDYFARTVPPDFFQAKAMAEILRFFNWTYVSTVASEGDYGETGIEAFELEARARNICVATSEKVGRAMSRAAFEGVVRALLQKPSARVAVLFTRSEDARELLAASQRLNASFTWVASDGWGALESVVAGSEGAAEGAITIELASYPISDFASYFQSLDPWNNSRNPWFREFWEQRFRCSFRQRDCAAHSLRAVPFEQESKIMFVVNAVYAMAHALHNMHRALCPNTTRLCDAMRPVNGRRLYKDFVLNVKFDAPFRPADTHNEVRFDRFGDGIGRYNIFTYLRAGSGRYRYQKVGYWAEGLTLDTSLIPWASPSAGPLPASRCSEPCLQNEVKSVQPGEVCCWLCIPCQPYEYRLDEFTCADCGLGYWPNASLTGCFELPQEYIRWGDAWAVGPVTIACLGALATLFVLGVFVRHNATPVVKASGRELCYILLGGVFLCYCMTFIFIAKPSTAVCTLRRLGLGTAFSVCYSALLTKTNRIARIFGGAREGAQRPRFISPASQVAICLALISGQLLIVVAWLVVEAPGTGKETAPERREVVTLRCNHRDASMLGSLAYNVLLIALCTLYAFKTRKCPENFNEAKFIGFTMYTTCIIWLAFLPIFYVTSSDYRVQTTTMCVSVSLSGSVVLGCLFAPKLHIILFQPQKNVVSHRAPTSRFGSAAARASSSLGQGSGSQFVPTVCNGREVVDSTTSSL
Chain of human mGlu2 (Q14416 19-872): as above
Chain of mGluR3 (Q14832 23-879): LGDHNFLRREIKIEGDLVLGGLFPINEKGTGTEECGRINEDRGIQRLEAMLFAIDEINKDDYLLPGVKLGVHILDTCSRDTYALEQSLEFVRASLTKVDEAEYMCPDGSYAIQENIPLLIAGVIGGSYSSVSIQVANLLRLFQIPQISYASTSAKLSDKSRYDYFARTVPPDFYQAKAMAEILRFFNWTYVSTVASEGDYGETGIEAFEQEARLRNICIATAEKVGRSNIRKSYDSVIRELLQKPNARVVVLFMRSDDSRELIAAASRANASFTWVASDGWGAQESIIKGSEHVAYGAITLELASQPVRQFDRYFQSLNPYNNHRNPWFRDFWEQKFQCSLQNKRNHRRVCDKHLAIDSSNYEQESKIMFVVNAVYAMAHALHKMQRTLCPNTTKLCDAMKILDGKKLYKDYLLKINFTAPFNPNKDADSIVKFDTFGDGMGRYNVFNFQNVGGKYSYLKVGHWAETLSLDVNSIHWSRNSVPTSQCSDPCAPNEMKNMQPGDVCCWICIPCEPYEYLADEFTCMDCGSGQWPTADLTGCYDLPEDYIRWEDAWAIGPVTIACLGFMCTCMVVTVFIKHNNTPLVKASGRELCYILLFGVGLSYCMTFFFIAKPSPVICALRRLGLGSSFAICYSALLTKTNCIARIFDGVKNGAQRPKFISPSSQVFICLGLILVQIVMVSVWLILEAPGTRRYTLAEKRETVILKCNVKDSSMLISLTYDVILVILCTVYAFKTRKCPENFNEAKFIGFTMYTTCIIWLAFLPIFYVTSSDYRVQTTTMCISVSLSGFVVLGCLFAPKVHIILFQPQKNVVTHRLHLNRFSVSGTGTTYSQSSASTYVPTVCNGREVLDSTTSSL
Chain of human mGlu3 (Q14832 23-879): as above

NC1(C(=O)O)CCc2cc(P(=O)(O)O)ccc21 (racemic) [APICA, (RS)-1-amino-5-phosphonoindan-1-carboxylic acid]
IC50 [1]: ~30 µM | IC50 [2]: ~30 µM | activity against Group I or Group III receptors [3]: no appreciable activity

N[C@@H](Cc1c[nH]c2ccc(O)cc12)C(=O)O [5-HTP, 5-hydroxytryptophan]
EC50, astrocyte differentiation [4, 13]: undeterminable | effect on astrocyte differentiation (in words) ([4]; hNSC): no significant increase in astrocyte differentiation above basal media values | EC50 ([5]; Homo sapiens, Neural stem cell): 12 µM | effect on neuronal differentiation (in words) [5]: weakly promoted neuronal differentiation

N[C@](CC1c2ccccc2Oc2ccccc21)(C(=O)O)[C@H]1C[C@@H]1C(=O)O [LY341495, (2S)-2-amino-2-(1S,2S-2-carboxycycloprop-1-yl)-3-(xanth-9-yl) propanoic acid]
activity against KA, AMPA, and NMDA iGlu receptors [6]: substantially inactive

N[C@@]1(C(=O)O)CO[C@H]2[C@H](C(=O)O)[C@H]21 [LY379268, (−)-2-oxa-4-aminobicyclohexane-4,6-dicarboxylic acid]
EC50 [7]: < 0.01 µM | EC50 [8]: < 0.01 µM

COc1ccc2cccc(CCNC(C)=O)c2c1 [agomelatine]
EC50 ([5]; Homo sapiens, Neural stem cell): 8.7 µM | effect on neuronal differentiation (in words) [5]: promotes differentiation of neural stem cells into neurons

CN1C(=O)COc2c(C(=O)NC3CN4CCC3CC4)cc(Cl)cc21 (centres unmarked) [azasetron]
lineage of hNSC monolayer in immunofluorescent image [9]: primarily of a neuronal lineage | EC50 [4, 13]: > 31.6 µM | effect on astrocyte differentiation (in words) ([4]; hNSC): did not show a significant effect on astrocyte differentiation | maximum astrocyte differentiation ([4]; percent of positive control, agent alone or in combination): 33% | EC50 [5]: 5.8 µM | effect on neuronal differentiation (in words) [5]: promote differentiation of neural stem cells into neurons | effect on neuronal differentiation (in words) ([5]; listed as Azasetron): significantly promoted neuronal differentiation

NCC(CC(=O)O)c1ccc(Cl)cc1 (centres unmarked) [baclofen]
EC50 [4, 13]: > 31.6 µM | EC50 ([5]; Homo sapiens, Neural stem cell): 3.9 µM

C[C@H](CS)C(=O)N1CCC[C@H]1C(=O)O [captopril]
EC50 ([5]; Homo sapiens, Neural stem cell): 5.4 µM

NC(=O)N1c2ccccc2C=Cc2ccccc21 [carbemazepine]
EC50 ([5]; Homo sapiens, Neural stem cell): 15.7 µM

COc1cc(N)c(Cl)cc1C(=O)NC1CCN(CCCOc2ccc(F)cc2)CC1OC (centres unmarked) [cisapride]
EC50 ([5]; Homo sapiens, Neural stem cell): 7.9 µM | effect on neuronal differentiation (in words) [5]: promote differentiation of neural stem cells into neurons

NCCc1ccc(O)c(O)c1 [dopamine, 4-(2-aminoethyl)benzene-1,2-diol]
neuronal differentiation, dopamine dose response ([5]; dopamine alone or with 10 μM or 30 μM 5-HTP): did not significantly enhance neuronal differentiation

CNCCC(Oc1ccc(C(F)(F)F)cc1)c1ccccc1 (centres unmarked) [fluoxetine]
latency to eat the food pellet ([10]; fluoxetine 10.0 mg/kg p.o.): reduced the latency to eat the food pellet | preference for the novel object (visits, time spent) [11]: increased both the number of visits to, and the amount of time spent with, the novel object; also recorded: dose dependent increase in preference for the novel object

Nc1nc2ncc(CNc3ccc(C(=O)N[C@@H](CCC(=O)O)C(=O)O)cc3)nc2c(=O)[nH]1 [folic acid]
EC50 ([5]; Homo sapiens, Neural stem cell): 4.5 µM

NCC1(CC(=O)O)CCCCC1 [gabapentin]
EC50 ([5]; Homo sapiens, Neural stem cell): 11.5 µM

CN1C2CCCC1CC(NC(=O)c1nn(C)c3ccccc13)C2 (centres unmarked) [granisetron]
effect on neuronal differentiation (in words) [5]: promote differentiation of neural stem cells into neurons

CC(C)C(=O)c1c(C(C)C)nn2ccccc12 [ibudilast]
EC50 ([5]; Homo sapiens, Neural stem cell): 0.72 µM

COc1ccc2[nH]cc(CCNC(C)=O)c2c1 [melatonin]
EC50 [4, 13]: > 31.6 µM | latency to eat the food pellet (percent baseline) ([10]; 0.5 mg/kg buspirone, 3.0 mg/kg melatonin or both, i.p.): did not significantly reduce the latency to eat the food pellet | EC50 ([5]; Homo sapiens, Neural stem cell): > 31.6 µM | BrdU positive cells per cubic mm dentate gyrus (percent change) [12]: did not significantly change the number of BrdU positive cells

COC(=O)C(c1ccccc1)C1CCCCN1 (centres unmarked) [methylphenidate]
EC50 ([5]; Homo sapiens, Neural stem cell): 2.2 µM

NC(=O)C[S+]([O-])C(c1ccccc1)c1ccccc1 (centres unmarked) [modafinil]
EC50 ([4]; agent alone, hNSC): > 31.6 µM | EC50 ([5]; Homo sapiens, Neural stem cell): 12.5 µM

CCOc1cc(N)c(Cl)cc1C(=O)NCC1CN(Cc2ccc(F)cc2)CCO1 (centres unmarked) [mosapride citrate]
lineage of hNSC monolayer in immunofluorescent image [9]: primarily of a neuronal lineage | EC50 [4, 13]: > 31.6 µM | effect on astrocyte differentiation (in words) ([4]; hNSC): did not show a significant effect on astrocyte differentiation | EC50 ([5]; Homo sapiens, Neural stem cell): ~15.8 µM | EC50 [5]: 10.4 µM | effect on neuronal differentiation (in words) ([5]; listed as Mosapride citrate): significantly promoted neuronal differentiation | effect on neuronal differentiation (in words) ([5]; listed as mosapride): promote differentiation of neural stem cells into neurons

O=C1CC[C@@]2(O)[C@H]3Cc4ccc(O)c5c4[C@@]2(CCN3CC2CC2)[C@H]1O5 [naltrexone]
EC50 ([5]; Homo sapiens, Neural stem cell): 0.39 µM

Cc1nccn1CC1CCc2c(c3ccccc3n2C)C1=O (centres unmarked) [ondansetron]
EC50 ([5]; Homo sapiens, Neural stem cell): 23.9 µM | effect on neuronal differentiation (in words) [5]: promote differentiation of neural stem cells into neurons

CNS(=O)(=O)Cc1ccc2[nH]cc(CCN(C)C)c2c1 [sumatriptan]
EC50 ([5]; Homo sapiens, Neural stem cell): 14.9 µM | effect on neuronal differentiation (in words) [5]: promotes differentiation of neural stem cells into neurons

O=C1[C@@H]2[C@H]3CC[C@H](C3)[C@@H]2C(=O)N1CCCCN1CCN(c2ncccn2)CC1 [tandospirone]
EC50 [4, 13]: 8.69 µM | EC50 ([5]; Homo sapiens, Neural stem cell): 12.1 µM
